The values that follow come from ChEMBL document CHEMBL1122963, “[3H]Batrachotoxinin A 20 alpha-benzoate binding to voltage-sensitive sodium channels: a rapid and quantitative assay for local anesthetic activity in a variety of drugs” (J Med Chem, 1985).

The target of assay [1] is T1, Sodium channel alpha subunits; brain (Types I, II, III) (Homo sapiens, UniProt P35498+Q99250+Q9NY46). As to the kind of experiment: Inhibition of binding of Batrachotoxinin [3H]BTX-B to high affinity sites on voltage dependent sodium channels in a vesicular preparation from guinea pig cerebral cortex. Format: tissue-based, Cavia porcellus.
Assay [2] has as its target T1, Sodium channel alpha subunits; brain (Types I, II, III). Conditions: Cavia porcellus; Cerebral cortex; at 10 µM.

For orientation: IC50 means the concentration that inhibits the measured activity by half. A low value points to greater potency. `COc1ccc(CCN(C)CCCC2(c3ccc(OC)c(OC)c3)S(=O)(=O)CCCS2(=O)=O)cc1OC` showed an IC50 in assay [1] of 13.5 µM.
The term inhibition denotes how much of the control response was suppressed. As to `CCCC(C(=O)OCC[N+](C)(CC)CC)(c1ccccc1)c1ccccc1.[I-]`, the IC50 in assay [1] came out at 4.2 µM. In assay [2], this molecule returned an inhibition of 72%.
In turn, `COc1cccc(OC)c1OCCNCC1=COc2ccccc2O1` gave an IC50 in assay [1] of 2.4 µM. Besides, the inhibition in assay [2] stood at 67.7%.
`CC[N+](CC)(CC)CC(=O)Nc1c(C)cccc1C.[Cl-]` gave an IC50 in assay [1] of 97 µM. In addition, the inhibition in assay [2] was found to be 52.4%.
Molecule `CC[C@@H]1CN2CC[C@@H]1C[C@H]2[C@H](O)c1ccnc2ccc(OCCC(C)C)cc12` yielded an IC50 in assay [1] of 0.74 µM. In addition, the inhibition in assay [2] was 95.7%.
Molecule `C=C(c1ccc(Oc2cccc3ccccc23)cc1)C1COC2(CCCCC2)OO1.Cl` (configuration not stated) registered an IC50 in assay [1] of 7 µM. The molecule also returned an inhibition in assay [2] of 68.3%.
`CC(C)(C)NCC(CO)O/N=C1\c2ccccc2C2C=CC=CC12` (configuration not stated) registered an IC50 in assay [1] of 3.7 µM. The inhibition in assay [2] was 72.5%.
In the case of `CCCCC1=C(N(C)C)c2cc3c(cc2C1)OCO3`, the IC50 in assay [1] was found to be 12.5 µM. In assay [2], this molecule had an inhibition of 45%.
For `Cl.NCCCCCCNS(=O)(=O)c1cccc2ccccc12`, the IC50 in assay [1] is 22 µM. This molecule also showed an inhibition in assay [2] of 33.3%.
The corresponding values for `C[N+](C)(C)CCOC(c1ccccc1)c1ccccc1.[I-]` are 64 µM and 69%.
`CCCC[N+]1(C)CCCCC1C(=O)Nc1c(C)cccc1C.[I-]` (configuration not stated) had an IC50 in assay [1] of 4.8 µM. Moreover, the inhibition in assay [2] is 64.5%.
`C=CCC1(C(C)CCC)C(=O)NC(=O)NC1=O` (configuration not stated) showed an inhibition in assay [2] of 4.4%.
With `CC(=O)Nc1ccc(OCC(O)CNC(C)C)cc1` (configuration not stated), in assay [2], the inhibition turned out to be 8.4%.
The molecule `CC(C)(C)NCC(O)COc1cccc2c1CCCC2=O` (configuration not stated) had an inhibition in assay [2] of 27.3%.
Still for that read-out and setting: under `CC(C)(C)NC[C@H](O)COc1nsnc1N1CCOCC1` stands 8%; under `CC(C)CCC[C@@H](C)[C@H]1CC[C@H]2[C@@H]3CC=C4C[C@@H](O)CC[C@]4(C)[C@H]3CC[C@]12C`, 3.3%.
`CC(C)NCC(O)c1ccc([N+](=O)[O-])cc1` (configuration not stated) gave an inhibition in assay [2] of 7.9%.
`CC(C)[C@@]1(O)[C@@H](OC(=O)c2cc[nH]c2)[C@@]2(O)[C@]3(C)C[C@@]4(O)O[C@@]5([C@H](O)[C@@H](C)CC[C@]35O)[C@@]2(O)[C@@]41C` had an inhibition in assay [2] of 0%.
For `CC/C(=C(/CC)c1ccc(O)cc1)c1ccc(O)cc1`, the inhibition in assay [2] turned out to be 30.1%.
The molecule `CCC1(c2ccccc2)C(=O)NC(=O)NC1=O` gave an inhibition in assay [2] of 5.4%.
As for `CCCCNc1ccc(C(=O)OCCN(C)C)cc1`, the inhibition in assay [2] amounted to 72%.
Consider `CCCCOc1cc(CC2CNC(=O)N2)ccc1OC` (configuration not stated), for which the inhibition in assay [2] worked out at 14.1%.
Take `CC[N+](CC)(CC)CC`: the inhibition in assay [2] was found to be 1.4%.
Molecule `CN(C)C/C=C(/c1ccc(Br)cc1)c1cccnc1` registered an inhibition in assay [2] of 34.6%.
Still for that read-out and setting: under `CN(C)CCCn1c2c(c3ccccc31)CCCCCC2` stands 42.4%; under `COC(=O)C1=C(C)NC(C)=C(C(=O)OC)C1c1ccccc1[N+](=O)[O-]`, 26%.
In turn, `COC(=O)[C@H]1[C@H]2C[C@H]3c4[nH]c5ccccc5c4CCN3C[C@@H]2CC[C@@H]1O` gave an inhibition in assay [2] of 33.7%.
For `COC(=O)[C@H]1[C@H]2C[C@H]3c4[nH]c5ccccc5c4CCN3C[C@H]2CC[C@@H]1O`, the inhibition in assay [2] is 13.1%.
For `COc1cc2c(cc1OC)-c1c/c(=N\c3c(C)cc(C)cc3C)n(C)c(=O)n1CC2`, the inhibition in assay [2] was determined as 17.4%.
In assay [2], `COc1cc2c3cc1Oc1cc(ccc1O)C[C@@H]1c4c(cc(OC)c(O)c4Oc4ccc(cc4)C[C@@H]3N(C)CC2)CC[N+]1(C)C` yielded an inhibition of 3%.
In assay [2], `COc1ccc(CCN(C)CCCC(C#N)(c2ccc(OC)c(OC)c2)C(C)C)cc1OC` (configuration not stated) gave an inhibition of 74.4%.
For `COc1ccc(CN(CCN(C)C)c2ccccn2)cc1`, the inhibition in assay [2] is 44.5%.
Same read-out and setting: the same measure for `COc1ccc2c3c1O[C@H]1[C@@H](O)C=C[C@H]4[C@@H](C2)N(C)CC[C@@]341`: 5.7%; for `C[C@H](Cc1ccccc1)Nc1ncnc2c1ncn2[C@@H]1O[C@H](CO)[C@@H](O)[C@H]1O`: 2.2%; for `Cn1c(=O)c2nc(-c3ccccc3)[nH]c2n(C)c1=O`: 10.9%.
Regarding `NC(=O)N1c2ccccc2C=Cc2ccccc21`, the inhibition in assay [2] worked out at 1.6%.
In turn, `NCC(CC(=O)O)c1ccc(Cl)cc1` (configuration not stated) showed an inhibition in assay [2] of 6.2%.
In turn, `NC[C@H](CC(=O)O)c1ccc(Cl)cc1` yielded an inhibition in assay [2] of 11.7%.
`O=C(CCCN1CCC(O)(c2ccc(Cl)cc2)CC1)c1ccc(F)cc1` registered an inhibition in assay [2] of 85.5%.
As to `O=C(O)c1ccccc1Nc1cccc(C(F)(F)F)c1`, the inhibition in assay [2] was found to be 26.7%.
For `O=C1NC(=O)C(c2ccccc2)(c2ccccc2)N1`, in assay [2], the inhibition was found to be 18.5%.
In assay [1], `CCN(CC)CCCN1C(=O)CC2(CCCc3ccccc32)C1=O` (racemic; form 1) [listing 1 of 2 here] displayed an IC50 of 94 µM.
Molecule `CCN(CC)CCCN1C(=O)CC2(CCCc3ccccc32)C1=O` (racemic; form 1) [listing 2 of 2 here] returned an inhibition in assay [2] of 25.7%.
In turn, `CCN(CC)CCCN1C(=O)CC2(CCCc3ccccc32)C1=O` (racemic; form 2) [listing 1 of 2 here] returned an IC50 in assay [1] of 12 µM. This lies in the double-digit micromolar range.
In assay [2], `CCN(CC)CCCN1C(=O)CC2(CCCc3ccccc32)C1=O` (racemic; form 2) [listing 2 of 2 here] had an inhibition of 54.1%.
`CN(C)CCC=C1c2ccccc2CCc2ccccc21` [AMITRIPTYLINE] returned an IC50 in assay [1] below 10 µM. Also, the inhibition in assay [2] is 73.8%.
Turning to `OC(c1ccccc1)(c1ccccc1)C1CCNCC1` [AZACYCLONOL], the IC50 in assay [1] worked out at 14 µM. The same molecule registered an inhibition in assay [2] of 43.2%.
For `CCCCOc1cc(C(=O)OCCN(CC)CC)ccc1N` [BENOXINATE], the IC50 in assay [1] came to 2.9 µM. The same molecule returned an inhibition in assay [2] of 73.4%.
`CC(C)COCC(CN(Cc1ccccc1)c1ccccc1)N1CCCC1` (configuration not stated) [BEPRIDIL]: in assay [1], the IC50 was determined as 0.84 µM. Besides, the inhibition in assay [2] worked out at 96.2%.
Turning to `OC(CCN1CCCCC1)(c1ccccc1)C1CC2C=CC1C2` (configuration not stated) [BIPERIDEN], the IC50 in assay [1] is below 10 µM. The inhibition in assay [2] was 62.9%.
`CCCCN1CCCCC1C(=O)Nc1c(C)cccc1C` (configuration not stated) [BUPIVACAINE] yielded an inhibition in assay [2] of 63.4%.
For the molecule `CCCCN(CCCC)CCCOC(=O)c1ccc(N)cc1` [BUTACAINE], the IC50 in assay [1] came out at 2.7 µM. This molecule also showed an inhibition in assay [2] of 75.3%.
As for `COc1ccc(OC)c(C(O)C(C)NC(C)(C)C)c1` (configuration not stated) [BUTOXAMINE], in assay [1], the IC50 is 27 µM. In assay [2], this molecule had an inhibition of 26.8%.
As to `Cn1c(=O)c2c(ncn2C)n(C)c1=O` [CAFFEINE], the IC50 in assay [1] stood at 660 µM. This molecule also came in with an inhibition in assay [2] of 9.7%.
The molecule `C[N+](C)(CC(=O)Nc1ccccc1)CC(=O)Nc1ccccc1.[Cl-]` [CARCAINIUM CHLORIDE] showed an IC50 in assay [1] of 3.9 µM. In assay [2], this molecule had an inhibition of 71.6%.
The corresponding values for `CN(C)CCC(c1ccc(Cl)cc1)c1ccccn1` (configuration not stated) [CHLORPHENIRAMINE] are 10 µM and 49.7%.
Consider `CN(C)CCCN1c2ccccc2Sc2ccc(Cl)cc21` [CHLORPROMAZINE], for which the IC50 in assay [1] came out at 4.3 µM. The inhibition in assay [2] amounted to 72.2%.
In assay [1], `CN(C)CC/C=C1/c2ccccc2Sc2ccc(Cl)cc21` [CHLORPROTHIXENE] returned an IC50 below 10 µM. In assay [2], this molecule had an inhibition of 55.2%.
The matching figures for `CN(C)CCCN1c2ccccc2CCc2ccc(Cl)cc21` [CLOMIPRAMINE]: below 10 µM and 76.6%.
As for `CC1CCCCN1CCCOC(=O)c1ccc(OC2CCCCC2)cc1` (configuration not stated) [CYCLOMETHYCAINE], the IC50 in assay [1] worked out at 2 µM. The inhibition in assay [2] came to 81.9%.
Consider `CN1CCC(=C2c3ccccc3C=Cc3ccccc32)CC1` [CYPROHEPTADINE], for which the IC50 in assay [1] came out at 1 µM. For the same molecule, the inhibition in assay [2] turned out to be 83%.
In assay [1], `CNCCCN1c2ccccc2CCc2ccccc21` [DESIPRAMINE] registered an IC50 of 2.4 µM. This molecule returned an inhibition in assay [2] of 80.3%.
`CC(C)NC[C@@H](O)COc1cccc2ccccc12` [DEXPROPRANOLOL] returned an IC50 in assay [1] of 10 µM. Further, the inhibition in assay [2] was determined as 50%.
Regarding `CN1CC[C@@]23CCCC[C@@H]2[C@@H]1Cc1ccc(O)cc13` [DEXTRORPHAN], the IC50 in assay [1] was 18 µM. The inhibition in assay [2] came to 38.2%.
On to `CCCCOc1cc(C(=O)NCCN(CC)CC)c2ccccc2n1` [DIBUCAINE], for which the inhibition in assay [2] amounted to 77.4%.
In turn, `CC(C)NCC(O)c1ccc(Cl)c(Cl)c1` (configuration not stated) [DICHLOROISOPROTERENOL] had an IC50 in assay [1] below 10 µM. For the same molecule, the inhibition in assay [2] was 53%.
As for `CCN(CC)CCOC(=O)C1(C2CCCCC2)CCCCC1` [DICYCLOMINE], the IC50 in assay [1] stood at 28 µM. Besides, in assay [2], the inhibition came to 75%.
`COc1cc(C(=O)OCCCN2CCCN(CCCOC(=O)c3cc(OC)c(OC)c(OC)c3)CC2)cc(OC)c1OC` [DILAZEP]: in assay [1], the IC50 turned out to be 0.6 µM. The inhibition in assay [2] came out at 99.3%.
The corresponding values for `CCCCc1cc2ccccc2c(OCCN(C)C)n1` [DIMETHISOQUIN] are 3.4 µM and 73.4%.
`O=C(Nc1ccccc1)OCC(CN1CCCCC1)OC(=O)Nc1ccccc1` (configuration not stated) [DIPERODON] had an IC50 in assay [1] of 1.3 µM. Further, in assay [2], the inhibition amounted to 87.8%.
`OC(CCCN1CCCCC1)(c1ccccc1)c1ccccc1` [DIPHENIDOL] came in with an IC50 in assay [1] of 3.4 µM. In assay [2], the inhibition amounted to 65.1%.
In turn, `CN(C)CCC=C1c2ccccc2COc2ccccc21` [DOXEPIN] showed an IC50 in assay [1] below 10 µM. In assay [2], this molecule returned an inhibition of 67.7%.
`CCCN(CC)C(CC)C(=O)Nc1c(C)cccc1C` (configuration not stated) [ETIDOCAINE]: the inhibition in assay [2] turned out to be 73.2%.
Same read-out and setting: under `C=C[C@H]1CN2CC[C@H]1C[C@@H]2[C@@H](O)c1ccnc2ccc(OC)cc12` [QUINIDINE] stands 74.1%; under `C=C[C@H]1CN2CC[C@H]1C[C@H]2[C@H](O)c1ccnc2ccc(OC)cc12` [QUININE], 69.3%.
As to `O=C(CCCN1CCC2(CC1)C(=O)NCN2c1ccccc1)c1ccc(F)cc1` [SPIPERONE], the inhibition in assay [2] is 98.7%.
(-)-BUTACLAMOL: in assay [2], the inhibition was 87.1%.
